In patent US8796245B2 (TetraPhase Pharmaceuticals, Inc., priority 2008, dated 2014):
Converted amounts (≈) assume the structure as drawn.

Columns and labels:
Format in all cases: cell-based
[1] = test system: K. pneumoniae ATCC 13883 (KP109); test: Minimum inhibitory concentration assay, KP109; details: Klebsiella pneumoniae, ATCC13883; K. pneumoniae ATCC 13883, wt; read-out: MICs KP109
Experimental: (§1) Frozen bacterial strains were thawed and subcultured onto Mueller Hinton Broth (MHB) or other appropriate media (Streptococcus requires blood and Haemophilus requires hemin and NAD). Following incubation overnight, the strains were subcultured onto Mueller Hinton Agar and again incubated overnight. […] Isolated colonies were selected to prepare a starting inoculum equivalent to a 0.5 McFarland standard. The starting inoculum was diluted 1:125 using MHB for further use. Test compounds were prepared by dilution in sterile water to a final concentration of 5.128 mg/mL. Antibiotics (stored frozen, thawed and used within 3 hours of thawing) and compounds were further diluted to the desired working concentrations.
(§2) The assays were run as follows. Fifty μL of MHB was added to wells 2-12 of a 96-well plate. One hundred […] of appropriately diluted antibiotics was added to well 1. Fifty μL of antibiotics was removed from well 1 and added to well 2 and the contents of well 2 mixed by pipetting up and down five times. Fifty μL of the mixture in well 2 was removed and added to well 3 and mixed as above. Serial dilutions were continued in the same manner through well 12. Fifty μL was removed from well 12 so that all contained 50 μL. Fifty μL of the working inoculum was then added to all test wells. A growth control well was prepared by adding 50 μL of working inoculum and 50 μL of MHB to an empty well. The plates were then incubated at 37° C. overnight, removed from the incubator and each well was read on a plate reading mirror. The lowest concentration (MIC) of test compound that inhibited the growth of the bacteria was recorded.

[2] = test system: E. coli ATCC 25922 (EC107); test: Minimum inhibitory concentration assay, EC107; details: Escherichia coli, ATCC25922; E. coli ATCC 25922, wt; read-out: MICs EC107
Experimental: as §1, §2

[3] = test system: S. pneumoniae SP160 (tet resistant: tet M); test: Minimum inhibitory concentration assay, SP160; details: Streptococcus pneumoniae, read-out: MICs SP160
Experimental: as §1, §2

[4] = test system: S. pneumoniae ATCC 49619 (SP106); test: Minimum inhibitory concentration assay, SP106; details: Streptococcus pneumoniae, ATCC49619; S. pneumoniae ATCC 49619, wt; read-out: MICs SP106
Experimental: as §1, §2

[5] = test system: S. aureus ATCC 29213 (SA101, MSSA); test: Minimum inhibitory concentration assay, SA101; details: Staphylococcus aureus; S. aureus ATCC 29213, MSSA control; read-out: MICs SA101
Experimental: as §1, §2

[6] = test system: A. baumanii ATCC 19606 (AB110); test: Minimum inhibitory concentration assay, AB110; details: Acinetobacter baumannii, ATCC19606; A. baumanii ATCC 19606, wt; read-out: MICs AB110
Experimental: as §1, §2

[7] = test system: E. faecalis ATCC 29212 (EF103); test: Minimum inhibitory concentration assay, EF103; details: Enterococcus faecalis, ATCC29212, read-out: MICs EF103
Experimental: as §1, §2

[8] = test system: E. faecalis EF159 (tet resistant: tetM); test: Minimum inhibitory concentration assay, EF159; details: Enterococcus faecalis, read-out: MICs EF159
Experimental: as §1, §2

[9] = test system: S. aureus SA161 (tet resistant: tet(M) ribosomal protection); test: Minimum inhibitory concentration assay, SA161; details: Staphylococcus aureus, read-out: MICs SA161
Experimental: as §1, §2

[10] = test system: P. aeruginosa ATCC 27853 (PA111); test: Minimum inhibitory concentration assay, PA111; details: Pseudomonas aeruginosa, ATCC27853; P. aeruginosa ATCC 27853, wt; read-out: MICs PA111
Experimental: as §1, §2

[11] = test system: E. coli EC155 (tet resistant: tetA efflux); test: microbe, parasite or virus in culture; details: Escherichia coli; E. coli tet resistant: tetA (efflux); read-out: MICs EC155
Experimental: as §1, §2

[12] = test system: K. pneumoniae KP153 (tet resistant: tetA efflux); test: microbe, parasite or virus in culture; details: Klebsiella pneumoniae, read-out: MICs KP153
Experimental: as §1, §2

[13] = test system: S. aureus SA158 (tet resistant: tetK efflux); test: microbe, parasite or virus in culture; details: Staphylococcus aureus, read-out: MICs SA158
Experimental: as §1, §2

[14] = test system: S. aureus ATCC 13709 (SA100, MSSA, Smith strain); test: Minimum inhibitory concentration assay, SA100; details: Staphylococcus aureus; S. aureus ATCC 13709, MSSA Smith strain; read-out: MICs SA100
Experimental: as §1, §2

[15] = test system: E. cloacae ATCC 13047 (EC108); test: Minimum inhibitory concentration assay, EC108; details: Enterobacter cloacae, ATCC13047; E. cloacae ATCC 13047, wt; read-out: MICs EC108
Experimental: as §1, §2

Row | SMILES | MIC [1] | MIC [2] | MIC [3] | MIC [4] | MIC [5] | MIC [6] | MIC [7] | MIC [8] | MIC [9] | MIC [10] | MIC [11] | MIC [12] | MIC [13] | MIC [14] | MIC [15]
1 | CCCN(C)CC(=O)Nc1cc(F)c2c(c1O)C(=O)C1=C(O)[C@]3(O)C(=O)C(C(N)=O)=C(O)[C@@H](N(C)C)[C@@H]3C[C@@H]1C2 [Compound 28] | 4 µg/mL (≈ 7.14 µM) | 2 µg/mL (≈ 3.57 µM) | 0.0625 µg/mL (≈ 0.111 µM) | 0.125 µg/mL (≈ 0.223 µM) | 1 µg/mL (≈ 1.78 µM) | 0.5 µg/mL (≈ 0.892 µM) | 1 µg/mL (≈ 1.78 µM) | 1 µg/mL (≈ 1.78 µM) | 2 µg/mL (≈ 3.57 µM) | > 32 µg/mL | 16 µg/mL (≈ 28.5 µM) | 16 µg/mL (≈ 28.5 µM) | 1 µg/mL (≈ 1.78 µM) | 2 µg/mL (≈ 3.57 µM) | 8 µg/mL (≈ 14.3 µM)
2 | CCCCCCCNCC(=O)Nc1cc(F)c2c(c1O)C(=O)C1=C(O)[C@]3(O)C(=O)C(C(N)=O)=C(O)[C@@H](N(C)C)[C@@H]3C[C@@H]1C2 [Compound 29] | 8 µg/mL (≈ 13.3 µM) | 8 µg/mL (≈ 13.3 µM) | 1 µg/mL (≈ 1.66 µM) | 1 µg/mL (≈ 1.66 µM) | 4 µg/mL (≈ 6.64 µM) | 8 µg/mL (≈ 13.3 µM) | 2 µg/mL (≈ 3.32 µM) | 2 µg/mL (≈ 3.32 µM) | 4 µg/mL (≈ 6.64 µM) | > 32 µg/mL | 8 µg/mL (≈ 13.3 µM) | 8 µg/mL (≈ 13.3 µM) | 2 µg/mL (≈ 3.32 µM) | 4 µg/mL (≈ 6.64 µM) | 8 µg/mL (≈ 13.3 µM)
3 | CN(C)[C@@H]1C(O)=C(C(N)=O)C(=O)[C@@]2(O)C(O)=C3C(=O)c4c(O)c(NC(=O)CNc5ccccc5)cc(F)c4C[C@H]3C[C@@H]12 [Compound 30] | > 32 µg/mL | > 32 µg/mL | 4 µg/mL (≈ 6.89 µM) | 2 µg/mL (≈ 3.44 µM) | 2 µg/mL (≈ 3.44 µM) | 8 µg/mL (≈ 13.8 µM) | 2 µg/mL (≈ 3.44 µM) | 2 µg/mL (≈ 3.44 µM) | 4 µg/mL (≈ 6.89 µM) | > 32 µg/mL | > 32 µg/mL | > 32 µg/mL | 2 µg/mL (≈ 3.44 µM) | 1 µg/mL (≈ 1.72 µM) | > 32 µg/mL
4 | CN(CC(=O)Nc1cc(F)c2c(c1O)C(=O)C1=C(O)[C@]3(O)C(=O)C(C(N)=O)=C(O)[C@@H](N(C)C)[C@@H]3C[C@@H]1C2)C1CCCC1 [Compound 31] | 4 µg/mL (≈ 6.82 µM) | 2 µg/mL (≈ 3.41 µM) | 0.25 µg/mL (≈ 0.426 µM) | 0.25 µg/mL (≈ 0.426 µM) | 1 µg/mL (≈ 1.7 µM) | 0.5 µg/mL (≈ 0.852 µM) | 0.5 µg/mL (≈ 0.852 µM) | 1 µg/mL (≈ 1.7 µM) | 2 µg/mL (≈ 3.41 µM) | > 32 µg/mL | 8 µg/mL (≈ 13.6 µM) | 8 µg/mL (≈ 13.6 µM) | 1 µg/mL (≈ 1.7 µM) | 2 µg/mL (≈ 3.41 µM) | 8 µg/mL (≈ 13.6 µM)
5 | CN(C)[C@@H]1C(O)=C(C(N)=O)C(=O)[C@@]2(O)C(O)=C3C(=O)c4c(O)c(NC(=O)CN5CCC5)cc(F)c4C[C@H]3C[C@@H]12 [Compound 32] | 1 µg/mL (≈ 1.84 µM) | 0.25 µg/mL (≈ 0.459 µM) | ≤ 0.0156 µg/mL | ≤ 0.0156 µg/mL | 0.125 µg/mL (≈ 0.23 µM) | 2 µg/mL (≈ 3.67 µM) | 0.0625 µg/mL (≈ 0.115 µM) | 0.125 µg/mL (≈ 0.23 µM) | 0.25 µg/mL (≈ 0.459 µM) | 8 µg/mL (≈ 14.7 µM) | 8 µg/mL (≈ 14.7 µM) | 4 µg/mL (≈ 7.35 µM) | 0.5 µg/mL (≈ 0.918 µM) | 0.5 µg/mL (≈ 0.918 µM) | 1 µg/mL (≈ 1.84 µM)
6 | CN(C)[C@@H]1C(O)=C(C(N)=O)C(=O)[C@@]2(O)C(O)=C3C(=O)c4c(O)c(NC(=O)CC5CC(F)C5)cc(F)c4C[C@H]3C[C@@H]12 (stereo partly drawn) [Compound 33] | 4 µg/mL (≈ 7.12 µM) | 2 µg/mL (≈ 3.56 µM) | 0.125 µg/mL (≈ 0.223 µM) | ≤ 0.0156 µg/mL | 0.25 µg/mL (≈ 0.445 µM) | 4 µg/mL (≈ 7.12 µM) | 0.25 µg/mL (≈ 0.445 µM) | 1 µg/mL (≈ 1.78 µM) | 1 µg/mL (≈ 1.78 µM) | > 32 µg/mL | > 32 µg/mL | > 32 µg/mL | 2 µg/mL (≈ 3.56 µM) | 0.5 µg/mL (≈ 0.89 µM) | 16 µg/mL (≈ 28.5 µM)
7 | CN(C)[C@@H]1C(O)=C(C(N)=O)C(=O)[C@@]2(O)C(O)=C3C(=O)c4c(O)c(NC(=O)CN5CCCC5)cc(F)c4C[C@H]3C[C@@H]12 [Compound 34] | 0.5 µg/mL (≈ 0.895 µM) | 0.25 µg/mL (≈ 0.448 µM) | ≤ 0.0156 µg/mL | ≤ 0.0156 µg/mL | ≤ 0.0156 µg/mL | 0.125 µg/mL (≈ 0.224 µM) | ≤ 0.0156 µg/mL | ≤ 0.0156 µg/mL | 0.0625 µg/mL (≈ 0.112 µM) | 16 µg/mL (≈ 28.6 µM) | 2 µg/mL (≈ 3.58 µM) | 2 µg/mL (≈ 3.58 µM) | 0.125 µg/mL (≈ 0.224 µM) | 0.0625 µg/mL (≈ 0.112 µM) | 1 µg/mL (≈ 1.79 µM)
8 | CN(C)[C@@H]1C(O)=C(C(N)=O)C(=O)[C@@]2(O)C(O)=C3C(=O)c4c(O)c(NC(=O)CN5CC[C@@H](F)C5)cc(F)c4C[C@H]3C[C@@H]12 [Compound 35] | 4 µg/mL (≈ 6.94 µM) | 1 µg/mL (≈ 1.73 µM) | 0.016 µg/mL (≈ 0.0278 µM) | 0.016 µg/mL (≈ 0.0278 µM) | 0.25 µg/mL (≈ 0.434 µM) | 0.25 µg/mL (≈ 0.434 µM) | 0.125 µg/mL (≈ 0.217 µM) | 0.25 µg/mL (≈ 0.434 µM) | 0.5 µg/mL (≈ 0.867 µM) | > 32 µg/mL | 16 µg/mL (≈ 27.8 µM) | 8 µg/mL (≈ 13.9 µM) | 0.5 µg/mL (≈ 0.867 µM) | 0.25 µg/mL (≈ 0.434 µM) | 8 µg/mL (≈ 13.9 µM)
9 | CN(C)[C@@H]1C(O)=C(C(N)=O)C(=O)[C@@]2(O)C(O)=C3C(=O)c4c(O)c(NC(=O)CN5CC[C@H](F)C5)cc(F)c4C[C@H]3C[C@@H]12 [Compound 36] | 4 µg/mL (≈ 6.94 µM) | 2 µg/mL (≈ 3.47 µM) | ≤ 0.0156 µg/mL | ≤ 0.0156 µg/mL | 0.25 µg/mL (≈ 0.434 µM) | 0.125 µg/mL (≈ 0.217 µM) | 0.25 µg/mL (≈ 0.434 µM) | 0.25 µg/mL (≈ 0.434 µM) | 0.5 µg/mL (≈ 0.867 µM) | > 32 µg/mL | 32 µg/mL (≈ 55.5 µM) | 32 µg/mL (≈ 55.5 µM) | 1 µg/mL (≈ 1.73 µM) | 0.5 µg/mL (≈ 0.867 µM) | 4 µg/mL (≈ 6.94 µM)
